Test [1] concerns HGC27 (Human Gastric Cancer Cell). Kind of test: HGC27 cell growth inhibition (CellTiter-Glo). The test is classed as cell-based. The conditions noted are these: read-out: HGC27 CTG IC50. The protocol:
Biological Activity Detection of HGC27 (Human Gastric Cancer Cell) Cell Growth Inhibition
This detection method is used to evaluate the cellular level biological activity of the compounds of the present disclosure.
Harvest HGC27 cells (purchased from Chinese Academy of Sciences), resuspend in complete culture medium and adjust the cell density to 0.2×10^6 cells per ml. Add 100 μL of cell suspension to each well into a 96-well plate and incubate overnight in a 37° C., 5% CO2 incubator. Prepare the compound to be tested and add it to the cell plate so that the maximum concentration of the compound is 10 μM. Set 8 concentration points according to 3-fold dilution. At the same time, set up a 100% inhibition control well, that is, a well with no cells added and only an equal volume of complete culture medium; and a 0% inhibition control well, that is, a cell well with 0.1% DMSO added. The above cell plate was cultured at 37° C. and 5% CO2 for 24 hours. Take out the cell culture plate, add 25 μl CellTiter-Glo® Luminescent Cell Viability reagent (promega cat #G7573) to each well, incubate in the dark for 10 minutes, transfer 100 μL to a white plate, and use Molecular Devices SpectraMax i3 to detect chemiluminescence. Data processing uses the following formula to calculate the inhibition rate: compound inhibition rate=(0% inhibition of control well signal−compound treatment well signal)/(0% inhibition of control well signal−100% inhibition of control well signal)*100%. The calculated data were fitted using graphpad prism software with four parameters and the corresponding IC50 was calculated.
According to the above detection method, the biological activity of the compound of the present disclosure was evaluated at the cellular level. Wherein, CR8 is a literature compound, which was purchased from Shanghai Bide Pharmaceutical.
Background: Cellular ATP, detected with luciferase, serves as a proxy for viable cell number.

Test [2] deals with T1, Cyclin K (CCNK) (Homo sapiens, UniProt O75909+Q9NYV4).
T1 construct: total cell protein was extracted with RIPA cell lysis buffer; host or cells: HEK293
T1 sequence (O75909 whole entry): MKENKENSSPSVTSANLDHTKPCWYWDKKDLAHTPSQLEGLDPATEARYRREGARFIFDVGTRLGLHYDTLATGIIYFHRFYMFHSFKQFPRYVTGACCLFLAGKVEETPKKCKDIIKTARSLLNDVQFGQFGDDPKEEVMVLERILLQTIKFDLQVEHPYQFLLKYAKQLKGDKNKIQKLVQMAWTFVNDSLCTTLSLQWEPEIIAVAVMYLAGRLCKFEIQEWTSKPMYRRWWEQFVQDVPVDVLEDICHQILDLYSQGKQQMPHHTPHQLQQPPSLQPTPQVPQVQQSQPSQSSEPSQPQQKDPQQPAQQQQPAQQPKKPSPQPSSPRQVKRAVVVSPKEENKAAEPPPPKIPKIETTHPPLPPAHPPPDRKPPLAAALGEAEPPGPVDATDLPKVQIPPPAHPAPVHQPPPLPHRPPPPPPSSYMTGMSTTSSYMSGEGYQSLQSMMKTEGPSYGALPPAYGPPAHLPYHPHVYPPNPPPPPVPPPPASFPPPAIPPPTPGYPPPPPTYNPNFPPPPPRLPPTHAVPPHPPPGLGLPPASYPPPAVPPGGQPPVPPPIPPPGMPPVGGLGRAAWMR
T1 sequence (Q9NYV4 whole entry): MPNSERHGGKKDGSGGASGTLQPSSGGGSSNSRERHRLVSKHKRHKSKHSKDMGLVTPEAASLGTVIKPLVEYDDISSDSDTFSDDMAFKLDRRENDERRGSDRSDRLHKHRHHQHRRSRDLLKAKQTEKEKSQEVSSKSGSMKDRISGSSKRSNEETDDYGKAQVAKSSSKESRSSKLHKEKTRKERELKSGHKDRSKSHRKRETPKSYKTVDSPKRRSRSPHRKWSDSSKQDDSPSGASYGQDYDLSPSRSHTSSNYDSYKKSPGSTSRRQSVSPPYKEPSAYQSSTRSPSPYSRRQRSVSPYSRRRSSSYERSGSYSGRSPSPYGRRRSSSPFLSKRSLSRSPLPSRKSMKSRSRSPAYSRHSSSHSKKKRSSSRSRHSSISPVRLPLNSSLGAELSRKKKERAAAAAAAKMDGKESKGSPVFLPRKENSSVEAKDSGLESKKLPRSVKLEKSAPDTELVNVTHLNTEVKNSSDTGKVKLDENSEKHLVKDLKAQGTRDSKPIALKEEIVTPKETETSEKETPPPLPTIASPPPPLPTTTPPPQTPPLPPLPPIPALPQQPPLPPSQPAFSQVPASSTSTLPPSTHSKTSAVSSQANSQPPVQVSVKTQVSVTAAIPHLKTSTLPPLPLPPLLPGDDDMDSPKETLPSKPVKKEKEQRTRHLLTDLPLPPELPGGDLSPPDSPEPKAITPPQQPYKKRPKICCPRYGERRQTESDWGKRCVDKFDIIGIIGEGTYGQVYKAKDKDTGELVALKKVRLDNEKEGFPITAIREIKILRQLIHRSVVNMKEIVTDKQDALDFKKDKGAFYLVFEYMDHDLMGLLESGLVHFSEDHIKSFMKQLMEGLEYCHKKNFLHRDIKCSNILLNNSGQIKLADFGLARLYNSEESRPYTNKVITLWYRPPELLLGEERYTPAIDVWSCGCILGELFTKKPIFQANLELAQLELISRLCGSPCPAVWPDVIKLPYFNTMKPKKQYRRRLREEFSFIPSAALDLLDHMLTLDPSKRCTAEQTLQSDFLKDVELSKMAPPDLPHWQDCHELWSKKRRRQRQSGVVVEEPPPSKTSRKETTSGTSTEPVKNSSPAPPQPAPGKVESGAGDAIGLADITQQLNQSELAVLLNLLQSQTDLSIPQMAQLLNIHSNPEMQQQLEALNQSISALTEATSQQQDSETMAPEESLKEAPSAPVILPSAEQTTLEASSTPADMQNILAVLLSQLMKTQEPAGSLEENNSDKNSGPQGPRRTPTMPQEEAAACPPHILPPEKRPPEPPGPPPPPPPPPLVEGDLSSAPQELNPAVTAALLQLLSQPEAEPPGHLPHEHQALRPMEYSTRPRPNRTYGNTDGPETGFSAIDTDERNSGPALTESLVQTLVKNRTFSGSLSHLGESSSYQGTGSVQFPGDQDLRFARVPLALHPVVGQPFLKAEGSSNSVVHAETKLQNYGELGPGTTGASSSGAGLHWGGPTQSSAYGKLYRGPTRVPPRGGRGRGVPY
T1 sequence (Q16531 whole entry partner): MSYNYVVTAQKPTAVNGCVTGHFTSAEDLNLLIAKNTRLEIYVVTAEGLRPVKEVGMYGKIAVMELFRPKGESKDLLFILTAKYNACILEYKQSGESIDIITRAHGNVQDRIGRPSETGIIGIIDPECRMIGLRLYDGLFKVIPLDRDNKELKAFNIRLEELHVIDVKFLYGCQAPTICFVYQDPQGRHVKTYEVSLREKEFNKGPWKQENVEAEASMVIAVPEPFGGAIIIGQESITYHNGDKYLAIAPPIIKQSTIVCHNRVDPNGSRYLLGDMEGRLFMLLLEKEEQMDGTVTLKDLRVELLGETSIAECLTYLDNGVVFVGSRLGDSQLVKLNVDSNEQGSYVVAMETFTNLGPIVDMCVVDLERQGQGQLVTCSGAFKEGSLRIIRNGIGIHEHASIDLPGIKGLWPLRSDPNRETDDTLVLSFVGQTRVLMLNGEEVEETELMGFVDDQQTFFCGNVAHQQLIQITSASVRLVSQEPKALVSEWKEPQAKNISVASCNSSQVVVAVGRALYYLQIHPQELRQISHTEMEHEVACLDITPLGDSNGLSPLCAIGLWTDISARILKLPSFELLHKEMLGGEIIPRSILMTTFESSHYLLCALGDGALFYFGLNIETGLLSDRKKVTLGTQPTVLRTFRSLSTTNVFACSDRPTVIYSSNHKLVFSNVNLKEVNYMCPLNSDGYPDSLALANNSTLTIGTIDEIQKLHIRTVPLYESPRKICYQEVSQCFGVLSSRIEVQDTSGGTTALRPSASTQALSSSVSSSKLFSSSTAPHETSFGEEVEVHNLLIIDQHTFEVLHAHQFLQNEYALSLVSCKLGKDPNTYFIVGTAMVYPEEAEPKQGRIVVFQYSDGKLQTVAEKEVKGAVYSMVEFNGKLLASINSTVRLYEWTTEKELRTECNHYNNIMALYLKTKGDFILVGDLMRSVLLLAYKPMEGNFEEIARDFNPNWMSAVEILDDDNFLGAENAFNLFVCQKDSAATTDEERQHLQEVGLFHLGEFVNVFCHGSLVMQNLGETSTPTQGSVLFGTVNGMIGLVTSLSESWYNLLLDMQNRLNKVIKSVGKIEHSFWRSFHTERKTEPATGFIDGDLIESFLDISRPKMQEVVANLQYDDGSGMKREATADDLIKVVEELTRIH
Kind of test: Western blot detection of Cyclin K (CCNK) degradation. It is filed as cell-based. The note with it: HEK293 cells, compared with the control; for degradation of Cyclin K (FIG. 2): 1 μM, 6 hours. On the procedure:
Western Blot Detection of Cyclin K (CCNK) Degradation
Harvest HEK1293 cells (ATCC, cat #CRL-1573) and adjust the cell density to 1×10^6 cells per ml. Pour 1 ml of cell suspension per well into a 6-well plate and culture overnight. Take the compound stock solution and dilute it to the appropriate concentration with DMSO. Add the diluted compound into the cell wells using culture medium at a ratio of 1:1000 to ensure that the DMSO concentration in each well is 0.1%. At the same time, negative control wells were set, that is, complete culture medium containing 0.1% DMSO. After the compounds were treated and fixed at the concentrations shown in the figure and for different times, total cell protein was extracted with RIPA cell lysis buffer (Beyotime, cat #P0013B) added with PMSF. After protein quantification using the BCA protein quantification kit (Thermo Fisher, cat #A53225), each sample was subjected to subsequent SDS-PAGE and western blot experiments at a loading volume of 40 μg. The specific conditions are: after running the gel at 120V constant pressure for 90 minutes, transfer the film at a constant current of 320 mA for 60 minutes. Carry out antibody incubation according to the recommended dilution ratio and incubation time of the antibody. The information of the antibodies used in the experiment is as follows: Anti-GAPDH antibody (abcam, cat #ab9485), Anti-Cyclin K antibody (abcam, cat #ab85854), Goat anti-Rabbit IgG (H+L) Cross-Adsorbed Secondary Antibody, HRP (invitrogen, cat #G-21234). ECL luminescence solution (Thermo Fisher, cat #32209) was used to develop color and luminescence. A gel imaging system was used to analyze the final results.
According to the above detection method, some compounds of the present disclosure were evaluated.

Where [3] appears, read: Homo sapiens, HGC-27, 24 h, HGC27 cells, 24 hours, CellTiter-Glo.

Like-named read-outs stand apart in the source and are kept apart here.

Usually IC50 stands for the concentration that inhibits the measured activity by half. `OCc1cccc(-c2ccc(CNc3ncc(C(F)(F)F)c(OC4COC4)n3)cc2)n1` [Compound 18]: the IC50 in test [1] (setting [3]) amounted to 281 nM. The “degradation of Cyclin K (FIG. 2)” value in test [2] is given as “significantly induce the degradation of Cyclin K”.

For `FC(F)(F)c1cnc(NCc2ccc(-c3cccnc3)cc2)nc1OC1COC1` [Compound 5], the “degradation of Cyclin K (FIG. 2)” value in test [2] is “significantly induce the degradation of Cyclin K”. In the case of `Clc1cnc(NCc2ccc(-c3ccccn3)cc2)nc1OC1COC1` [Compound 3], in test [2], the “degradation of Cyclin K (FIG. 2)” value was “significantly induce the degradation of Cyclin K”. In the case of `FC(F)(F)c1cnc(NCc2ccc(-c3ccccn3)cc2)nc1OC1COC1` [Compound 1], the half-maximal inhibitory concentration (IC50) in test [1] (setting [3]) stood at 385 nM. Moreover, the “degradation of Cyclin K (FIG. 1)” value in test [2] (0.1, 0.3, 1 μM, 6 h, 14 h, 24 h) is recorded as “significantly induce the degradation of Cyclin K”. Turning to `CS(=O)(=O)c1cncc(-c2nc(NCc3ccc(-c4ccccn4)cc3)ncc2C(F)(F)F)c1` [Compound 13], in test [1] (setting [3]), the IC50 came to 307 nM. The “degradation of Cyclin K (FIG. 2)” value in test [2] is reported as “significantly induce the degradation of Cyclin K”. Regarding `N#Cc1cc(CO)nc(-c2ccc(CNc3ncc(C(F)(F)F)c(OC4COC4)n3)cc2)c1` [Compound 179], the IC50 in test [1] (setting [3]) stood at 108 nM. Still for that read-out and setting: to `CC[C@@H](Nc1nc(NCc2ccc(-c3cc(C)cc(CO)n3)cc2)ncc1C(F)(F)F)C(N)=O` [Compound 163] belongs 393 nM; to `OCC(CO)Nc1nc(NCc2ccc(-c3ccccn3)cc2)ncc1C(F)(F)F` [Compound 104], 275 nM; to `C[C@@H](Nc1nc(NCc2ccc(-c3ccccn3)cc2)ncc1C(F)(F)F)C(N)=O` [Compound 188], 258 nM. For `CC[C@@H](Nc1nc(NCc2ccc(-c3cc(CO)cc(CO)n3)cn2)ncc1C(F)(F)F)C(N)=O` [Compound 176], the IC50 in test [1] (setting [3]) worked out at 171 nM. `Cc1cc(CO)cc(-c2ccc(CNc3ncc(C(F)(F)F)c(OC4COC4)n3)cc2)n1` [Compound 64]: in test [1] (setting [3]), the IC50 came to 251 nM.

Regarding `CS(=O)(=O)c1cccc(-c2nc(NCc3ccc(-c4ccccn4)cc3)ncc2C(F)(F)F)c1` [Compound 146], the IC50 in test [1] (setting [3]) came to 281 nM. Same read-out and setting: the figure for `CC[C@H](CO)Nc1nc(NCc2ccc(-c3ccccn3)cc2)ncc1C(F)(F)F` [Compound 25] is 158 nM; for `CN1CCC(Oc2nc(NCc3ccc(-c4ccccn4)cc3)ncc2C(F)(F)F)CC1` [Compound 35] it is 379 nM; for `C[C@@H](O)[C@@H](C)Oc1nc(NCc2ccc(-c3ccccn3)cc2)ncc1C(F)(F)F` [Compound 131] it is 100 nM.

As for `C[C@@H](Oc1nc(NCc2ccc(-c3ccccn3)cc2)ncc1C(F)(F)F)C(N)=O` [Compound 166], the IC50 in test [1] (setting [3]) was 24 nM. With `FC(F)(F)c1cnc(NCc2ccc(-c3ccccn3)cc2)nc1NC1COC1` [Compound 8], in test [2], the “degradation of Cyclin K (FIG. 2)” value is given as “significantly induce the degradation of Cyclin K”.

For `FC(F)(F)c1cnc(NCc2ccc(-c3cnccn3)cc2)nc1OC1COC1` [Compound 21], the IC50 in test [1] (Homo sapiens, HGC-27, 24 h) stood at 155 nM. On to `CC(C)[C@@H](Nc1nc(NCc2ccc(-c3ccccn3)cc2)ncc1C(F)(F)F)C(N)=O` [Compound 210], for which, in test [1] (setting [3]), the IC50 is 34 nM.

For `C[C@@H](O)[C@@H](CO)Nc1nc(NCc2ccc(-c3cc(CO)cc(CO)n3)cc2)ncc1C(F)(F)F` [Compound 170], the IC50 in test [1] (setting [3]) came to 48 nM. Turning to `CC[C@H](CO)Oc1nc(NCc2ccc(-c3ccccn3)cc2)ncc1C(F)(F)F` [Compound 149], the IC50 in test [1] (setting [3]) worked out at 238 nM. Consider `Cc1ccnc(-c2ccc(CNc3ncc(C(F)(F)F)c(OC4COC4)n3)cc2)c1` [Compound 40], for which the IC50 in test [1] (setting [3]) amounted to 341 nM. Consider `FC(F)(F)c1cnc(NCc2ccc(-c3ccccn3)cn2)nc1OC1COC1` [Compound 4], for which the “degradation of Cyclin K (FIG. 2)” value in test [2] is listed as “significantly induce the degradation of Cyclin K”.

In the case of `C[C@@H](O)[C@@H](C)Nc1nc(NCc2ccc(-c3cc(CO)cc(CO)n3)cc2)ncc1C(F)(F)F` [Compound 194], the IC50 in test [1] (setting [3]) came to 278 nM. On the same count and under the same terms, to `CC[C@@H](Nc1nc(NCc2ccc(-c3ccccn3)cc2)ncc1C(F)(F)F)C(N)=O` [Compound 134] belongs 370 nM. As for `Cc1cc(CO)cc(-c2ccc(CNc3ncc(C(F)(F)F)c(N[C@H](CO)[C@@H](C)O)n3)cc2)n1` [Compound 160], the IC50 in test [1] (setting [3]) amounted to 48 nM. With `CC[C@@H](Nc1nc(NCc2ccc(-c3cc(CO)cc(CO)n3)cc2)ncc1C(F)(F)F)[C@@H](C)O` [Compound 198], the IC50 in test [1] (setting [3]) came to 439 nM. Turning to `C[C@@H](O)[C@@H](Nc1nc(NCc2ccc(-c3ccccn3)cc2)ncc1C(F)(F)F)C(N)=O` [Compound 213], in test [1] (Homo sapiens, HGC-27, 24 h), the IC50 stood at 123 nM. Consider `C[C@@H](O)[C@@H](CN1CCCC1)Nc1nc(NCc2ccc(-c3ccccn3)cc2)ncc1C(F)(F)F` [Compound 202], for which the IC50 in test [1] (setting [3]) was found to be 367 nM. Take `C[C@@H](O)[C@@H](C)Oc1nc(NCc2ccc(-c3cc(CO)cc(CO)n3)cn2)ncc1C(F)(F)F` [Compound 182]: in test [1] (setting [3]), the IC50 worked out at 68 nM.

Consider `C[C@@H](Nc1nc(NCc2ccc(-c3ccccn3)cc2)ncc1C(F)(F)F)C(=O)N(C)C` [Compound 192], for which the IC50 in test [1] (setting [3]) was determined as 25 nM. Regarding `OC[C@H](Nc1nc(NCc2ccc(-c3ccccn3)cc2)ncc1C(F)(F)F)C1CC1` [Compound 159], in test [1] (setting [3]), the IC50 is 45 nM.

Regarding `C[C@@H](Nc1ncc(C(F)(F)F)c(OC2COC2)n1)c1ccc(-c2ccccn2)cc1` [Compound 119], the IC50 in test [1] (setting [3]) was 479 nM. With `O[C@@H]1CCC[C@H]1Nc1nc(NCc2ccc(-c3ccccn3)cc2)ncc1C(F)(F)F` [Compound 152], the IC50 in test [1] (HGC27 cells, 24 hours, CellTiter-Glo) was 202 nM.

For `COc1ccnc(-c2ccc(CNc3ncc(C(F)(F)F)c(OC4COC4)n3)cc2)c1` [Compound 114], the IC50 in test [1] (setting [3]) was determined as 251 nM.

In the case of `O[C@H]1CNCC1Oc1nc(NCc2ccc(-c3ccccn3)cc2)ncc1C(F)(F)F` (stereo partly drawn) [Compound 164], the concentration for half-maximal inhibition (IC50) in test [1] (setting [3]) was found to be 386 nM. Consider `NS(=O)(=O)c1cncc(-c2nc(NCc3ccc(-c4ccccn4)cc3)ncc2C(F)(F)F)c1` [Compound 147], for which the IC50 in test [1] (setting [3]) was determined as 410 nM. In the case of `O[C@H]1CC[C@H]1Nc1nc(NCc2ccc(-c3ccccn3)cc2)ncc1C(F)(F)F` [Compound 91], the IC50 in test [1] (setting [3]) worked out at 486 nM.

As for `CC[C@@H](Nc1nc(NCc2ccc(-c3ccccn3)cc2)ncc1C(F)(F)F)[C@@H](C)O` [Compound 195], in test [1] (setting [3]), the IC50 was found to be 25 nM. As for `O[C@H]1COC[C@H]1Oc1nc(NCc2ccc(-c3ccccn3)cc2)ncc1C(F)(F)F` [Compound 151], in test [1] (setting [3]), the IC50 stood at 197 nM.

With `N#Cc1ccnc(-c2ccc(CNc3ncc(C(F)(F)F)c(OC4COC4)n3)cc2)c1` [Compound 138], the IC50 in test [1] (setting [3]) worked out at 254 nM. As to `C[C@@H](O)[C@@H](CO)Nc1nc(NCc2ccc(-c3cc(CO)cc(CO)n3)cc2)ncc1C#N` [Compound 175], the IC50 in test [1] (setting [3]) was 406 nM.

(Values after patent US20240368147A1, “CYCLIN K DEGRADER” (ADLAI NORTYE BIOPHARMA CO., LTD., priority 2021, published 2024).)
